Assay results: ChEMBL document CHEMBL1129166, “Design and synthesis of novel, pseudo C2 symmetric inhibitors of HIV protease” (Bioorg Med Chem Lett, 1996)

How the values were obtained:
[1] = target: Human immunodeficiency virus type 1 protease (Human immunodeficiency virus 1, UniProt Q72874); test: Compound was evaluated for the inhibition of HIV protease
[2] = target: Human immunodeficiency virus type 1 protease (Human immunodeficiency virus 1) (UniProt Q72874); test: Compound was evaluated for the inhibition of HIV protease at 0.5 uM

Compound: CC(C)[C@H](NC(=O)OCc1ccccc1)C(=O)N[C@@H](Cc1ccccc1)CC1(C[C@H](Cc2ccccc2)NC(=O)[C@@H](NC(=O)OCc2ccccc2)C(C)C)CCC(=O)N1
- IC50 [1]: 2700 nM

Compound: CC(C)C(NC(=O)OCc1ccccc1)C(=O)N[C@@H](Cc1ccccc1)CC(C[C@H](Cc1ccccc1)NC(=O)C(NC(=O)OCc1ccccc1)C(C)C)[N+](=O)[O-] (stereo not given in full)
- IC50 [1]: 1500 nM

Compound: CC(C)(C)OC(=O)N[C@H](CC[C@H](O)[C@H](Cc1ccccc1)NC(=O)OC(C)(C)C)Cc1ccccc1
- IC50 [1]: 380 nM

Compound: CC(C)C(NC(=O)OCc1ccccc1)C(=O)N[C@H](CC[C@H](O)[C@H](Cc1ccccc1)NC(=O)C(NC(=O)OCc1ccccc1)C(C)C)Cc1ccccc1 (stereo not given in full)
- IC50 [1]: > 1 nM
- inhibition [2]: 62%

Compound: CC(C)[C@H](NC(=O)N(C)Cc1ccccn1)C(=O)N[C@@H](Cc1ccccc1)[C@H](O)[C@H](O)[C@H](Cc1ccccc1)NC(=O)[C@@H](NC(=O)N(C)Cc1ccccn1)C(C)C [A-77003]
- IC50 [1]: > 1 nM
- inhibition [2]: 57%

Compound: CC(C)C(NC(=O)OCc1ccccc1)C(=O)N[C@H](CC[C@@H](O)[C@H](Cc1ccccc1)NC(=O)C(NC(=O)OCc1ccccc1)C(C)C)Cc1ccccc1 (stereo not given in full)
- IC50 [1]: 200 nM

Compound: O=C(N[C@H](CC[C@H](O)[C@H](Cc1ccccc1)NC(=O)c1ccccc1NS(=O)(=O)c1ccccn1)Cc1ccccc1)c1ccccc1NS(=O)(=O)c1ccccn1
- IC50 [1]: > 3000 nM

Compound: O=C(Nc1ccccc1C(=O)N[C@H](CC[C@H](O)[C@H](Cc1ccccc1)NC(=O)c1ccccc1NC(=O)OCc1ccccn1)Cc1ccccc1)OCc1ccccn1
- IC50 [1]: 14 nM
